Test results taken from PMC5323330 (SLAS discovery, 2016).

How the values were obtained:
SERCA = conditions: cited from earlier work
[1] = tested on: endoplasmic reticulum [Ca2+] in HEK293 cells expressing D1ER; experiment: D1ER calcium FRET sensor, ER calcium content in live cells; assay type: cell-based, human; conditions: 120 min time point
cytosolic calcium = conditions: cited from earlier work

In the case of Clc1ccccc1C(c1ccccc1)(c1ccccc1)n1ccnc1 [Clotrimazole, clotrimazole], the “SERCA function, earlier report” value (SERCA) is given as “inhibit SERCA function”.
In the case of Clc1ccc(COC(Cn2ccnc2)c2ccc(Cl)cc2Cl)c(Cl)c1 (stereo not drawn) [Miconazole], the “ER calcium depletion (decreased D1ER FRET)” value [1] was “largest amount of ER calcium depletion”.
In the case of Oc1cc(Cl)ccc1Oc1ccc(Cl)cc1Cl [triclosan], the “cytosolic calcium, earlier report” value (cytosolic calcium) is given as “increase cytosolic calcium”.
